We go through one compound from PubChem BioAssay AID463130 (The Scripps Research Institute Molecular Screening Center, 2010).

SMILES strings stand for the structures.

The assay addresses Protein phosphatase methylesterase 1 (Homo sapiens) (UniProt Q9Y570). Description: inhibition of PME-1 probe labeling – gel-based ABPP, IC50, set 1, late-stage follow-up (AID 463130). The settings on record: fluorophosphonate probe labeling.

Chain of Protein phosphatase methylesterase 1 (Homo sapiens) (Q9Y570 whole entry, looked up): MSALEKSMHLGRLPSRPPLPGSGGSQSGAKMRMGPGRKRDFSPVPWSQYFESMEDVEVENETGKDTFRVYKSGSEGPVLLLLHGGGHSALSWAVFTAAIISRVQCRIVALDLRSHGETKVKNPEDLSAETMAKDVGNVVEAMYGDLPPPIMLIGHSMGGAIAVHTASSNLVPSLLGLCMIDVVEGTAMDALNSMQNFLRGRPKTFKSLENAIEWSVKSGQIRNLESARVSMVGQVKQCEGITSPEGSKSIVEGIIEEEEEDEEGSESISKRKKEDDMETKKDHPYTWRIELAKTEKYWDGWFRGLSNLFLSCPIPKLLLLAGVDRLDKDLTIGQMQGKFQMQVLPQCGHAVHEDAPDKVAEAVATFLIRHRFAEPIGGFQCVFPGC

A word on the IC50: it is the concentration that inhibits the measured activity by half. For the compound `COC(=O)N1C(=O)[C@](c2ccccc2)(C(C)C)N1C(=O)OC`, the IC50 is 195 nM.
